# Counter-ions that a name gives are not always drawn.
# Test system: KRas G12D-mediated phosphorylation of ERK
# Assay: Inhibition of KRas G12D-mediated phosphorylation of ERK in AGS cells
# Format: cell-based
# Settings: Homo sapiens; AGS cells expressing G12D, 3 hours, phospho-ERK normalized to GAPDH
# Description: Cells were plated in tissue culture treated 96 well plates at a density of 40,000 cells/well and allowed to attach for 12-14 hours. Diluted compounds were then added in a final concentration of 0.5% DMSO. After 3 hours, the medium was removed, 150 μL of 4.0% formaldehyde was added and the plates incubated at room temperature for 20 minutes. The plates were washed with PBS, and permeabilized with 150 μL of ice cold 100% methanol for 10 minutes. Non-specific antibody binding to the plates was blocked using 100 μL Licor blocking buffer (Li-Cor Biotechnology, Lincoln Nebr.) for 1 hour at room temperature.
# The amount of phospho-ERK was determined using an antibody specific for the phosphorylated form of ERK and compared to the amount of GAPDH. Primary antibodies used for the detection were added as follows: Phospho-ERK (Cell Signaling cs-9101) diluted 1:500 and GAPDH (Millipore MAB374) diluted 1:5000 in Licor block+0.05% Tween 20. The plates were incubated for 2 hours at room temperature. The plates were washed with PBS+0.05% Tween 20.
# Secondary antibodies used to visualize primary antibodies were added as follows: Anti-rabbit-680 diluted 1:1000 and Anti-mouse-800 diluted 1:1000 both in Licor block+0.05% TweeN2O, and were incubated for 1 hour at room temperature. The plates were washed with PBS+0.05% Tween 20. A 100 μL aliquot of PBS was added to each well and the plates were read on a Li-Cor Odyssey CLX plate reader.
# The phospho-ERK (Thr202/Tyr204 signal was normalized to the GAPDH signal for each well and percent of DMSO control values were calculated. IC50 values were generated using a 4-parameter fit of the dose response curve
row,SMILES,IC50
1,"Cn1nccc1COc1nc(N2C[C@H]3CC[C@@H](C2)N3)c2cnc(-c3cc(O)cc4ccccc34)c(F)c2n1 [Example 5, 4-(4-((1R,5S)-3,8-diazabicyclo[3.2.1]octan-3-yl)-8-fluoro-2-((1-methyl-1H-pyrazol-5-yl)methoxy)pyrido[4,3-d]pyrimidin-7-yl)naphthalen-2-ol]",8.19 µM
2,"Oc1cc(-c2ncc3c(N4CC5CCC(C4)N5)nc(OCC45CCCN4C[C@H](F)C5)nc3c2F)c2c(Cl)cccc2c1 (mixture of isomers) [Example 330, 4-(4-((1R,5S)-3,8-diazabicyclo[3.2.1]octan-3-yl)-8-fluoro-2-((2-fluorotetrahydro-1H-pyrrolizin-7a(5H)-yl)methoxy)pyrido[4,3-d]pyrimidin-7-yl)-5-chloronaphthalen-2-ol]",0.0118 µM
3,"Fc1c(-c2cccc3cccc(Cl)c23)ncc2c(N3CC4CCC(C3)N4)nc(OC[C@]34CCCN3C[C@H](c3ccccc3)C4)nc12 (stereo in doubt) [Example 221, 4-((1R,5S)-3,8-diazabicyclo[3.2.1]octan-3-yl)-7-(8-chloronaphthalen-1-yl)-8-fluoro-2-((2-phenyltetrahydro-1H-pyrrolizin-7a(5H)-yl)methoxy)pyrido[4,3-d]pyrimidine bis-hydrochloride salt]",15.8 µM
4,"CN1CCC[C@H]1COc1nc(N2C[C@H]3CC[C@@H](C2)N3)c2cnc(-c3cccc4ccc(F)c(Cl)c34)c(F)c2n1 [Example 44, 4-((1R,5S)-3,8-diazabicyclo[3.2.1]octan-3-yl)-7-(8-chloro-7-fluoronaphthalen-1-yl)-8-fluoro-2-(((S)-1-methylpyrrolidin-2-yl)methoxy)pyrido[4,3-d]pyrimidine]",2.29 µM
5,"Cc1c(Cl)cccc1-c1ncc2c(N3C[C@H]4CC[C@@H](C3)N4)nc(OCC34CCCN3CCC4)nc2c1F [Example 274, 4-((1R,5S)-3,8-diazabicyclo[3.2.1]octan-3-yl)-7-(3-chloro-2-methylphenyl)-8-fluoro-2-((hexahydro-1H-pyrrolizin-7a-yl)methoxy)pyrido[4,3-d]pyrimidine]",4.71 µM
6,"Cc1ccc2[nH]ncc2c1-c1ncc2c(N3C[C@H]4CC[C@@H](C3)N4)nc(OCC34CCCN3CCC4)nc2c1F [Example 332, 4-((1R,5S)-3,8-diazabicyclo[3.2.1]octan-3-yl)-8-fluoro-7-(5-methyl-1H-indazol-4-yl)-2-((tetrahydro-1H-pyrrolizin-7a(5H)-yl)methoxy)pyrido[4,3-d]pyrimidine]",> 16.7 µM
7,"Cc1c(Cl)cc2[nH]ncc2c1-c1ncc2c(N3CC4CCC(C3)N4)nc(OC[C@@]34CCCN3C[C@H](F)C4)nc2c1F (stereo in doubt) [Example 401, 4-((1R,5S)-3,8-diazabicyclo[3.2.1]octan-3-yl)-7-(6-chloro-5-methyl-1H-indazol-4-yl)-8-fluoro-2-((2-fluorotetrahydro-1H-pyrrolizin-7a(5H)-yl)methoxy)pyrido[4,3-d]pyrimidine]",0.604 µM
8,"CCc1cccc2cc(O)cc(-c3ncc4c(N5CC6CCC(C5)N6)nc(OC[C@]56CCCN5[C@@H](COC(=O)N(C)C)CC6)nc4c3F)c12 [Example 434, 7a-(((4-((1R,5S)-3,8-diazabicyclo[3.2.1]octan-3-yl)-7-(8-ethyl-3-hydroxynaphthalen-1-yl)-8-fluoropyrido[4,3-d]pyrimidin-2-yl)oxy)methyl)hexahydro-1H-pyrrolizin-3-yl)methyl dimethyl carbamate]",0.0067 µM
9,"C#Cc1c(F)ccc2cccc(-c3ncc4c(N5C[C@H]6CC[C@@H](C5)N6)nc(OCC56CCCN5CCC6)nc4c3F)c12 [Example 189, 4-((1R,5S)-3,8-diazabicyclo[3.2.1]octan-3-yl)-7-(8-ethynyl-7-fluoronaphthalen-1-yl)-8-fluoro-2-((tetrahydro-1H-pyrrolizin-7a(5H)-yl)methoxy)pyrido[4,3-d]pyrimidine]",0.0241 µM
10,"Fc1c(-c2c(C(F)(F)F)ccc3[nH]ncc23)ncc2c(N3C[C@H]4CC[C@@H](C3)N4)nc(OCC34CCCN3CCC4)nc12 [Example 344, 4-((1R,5S)-3,8-diazabicyclo[3.2.1]octan-3-yl)-8-fluoro-2-((tetrahydro-1H-pyrrolizin-7a(5H)-yl)methoxy)-7-(5-(trifluoromethyl)-1H-indazol-4-yl)pyrido[4,3-d]pyrimidine]",8.07 µM
11,"CN1CCC[C@H]1COc1nc(N2C[C@H]3CC[C@@H](C2)N3)c2cnc(-c3cc(O)cc4ccccc34)cc2n1 [Example 1, 4-(4-((1R,5S)-3,8-diazabicyclo[3.2.1]octan-3-yl)-2-(((S)-1-methylpyrrolidin-2-yl)methoxy)pyrido[4,3-d]pyrimidin-7-yl)naphthalen-2-ol tris-hydrochloride salt]",3.16 µM
12,"COCCNC(=O)O[C@@H]1C[C@@H](COc2nc(N3C[C@H]4CC[C@@H](C3)N4)c3cnc(-c4cccc5cccc(Cl)c45)c(F)c3n2)N(C)C1 [Example 280, (3R,5S)-5-(((4-((1R,5S)-3,8-diazabicyclo[3.2.1]octan-3-yl)-7-(8-chloronaphthalen-1-yl)-8-fluoropyrido[4,3-d]pyrimidin-2-yl)oxy)methyl)-1-methylpyrrolidin-3-yl (2-methoxyethyl)carbamate]",6.12 µM
13,"Fc1c(-c2ccccc2C(F)(F)F)ncc2c(N3C[C@H]4CC[C@@H](C3)N4)nc(OCC34CCCN3CCC4)nc12 [Example 370, 4-((1R,5S)-3,8-diazabicyclo[3.2.1]octan-3-yl)-8-fluoro-2-((tetrahydro-1H-pyrrolizin-7a(5H)-yl)methoxy)-7-(2-(trifluoromethyl)phenyl)pyrido[4,3-d]pyrimidine]",10.7 µM
14,"O[C@@H]1C[C@@H]2CN(c3nc(N4CCC4)nc4c(F)c(-c5cccc6cccc(Cl)c56)ncc34)C[C@H]1N2 [Example 152, (1R,5R,6R)-3-(2-(azetidin-1-yl)-7-(8-chloronaphthalen-1-yl)-8-fluoropyrido[4,3-d]pyrimidin-4-yl)-3,8-diazabicyclo[3.2.1]octan-6-ol]",> 50 µM
15,"Fc1c(-c2cccc3cccc(CC(F)F)c23)ncc2c(N3C[C@H]4CC[C@@H](C3)N4)nc(OCC34CCCN3CCC4)nc12 [Example 247, 4-((1R,5S)-3,8-diazabicyclo[3.2.1]octan-3-yl)-7-(8-(2,2-difluoroethyl)naphthalen-1-yl)-8-fluoro-2-((hexahydro-1H-pyrrolizin-7a-yl)methoxy)pyrido[4,3-d]pyrimidine]",4.31 µM
16,"O=C(OC[C@H]1CC[C@@]2(COc3nc(N4CC5CCC(C4)N5)c4cnc(-c5cccc6cccc(Cl)c56)c(F)c4n3)CCCN12)N1CCOCC1 [Example 445, ((3R,7aR)-7a-(((4-(3,8-diazabicyclo[3.2.1]octan-3-yl)-7-(8-chloronaphthalen-1-yl)-8-fluoropyrido[4,3-d]pyrimidin-2-yl)oxy)methyl)hexahydro-1H-pyrrolizin-3-yl)methyl morpholine-4-carboxylate]",0.13 µM
17,"Fc1c(-c2cccc3cccc(Cl)c23)ncc2c(N3C[C@H]4CC[C@@H](C3)N4)nc(OCC34CC(F)CN3CC(F)C4)nc12 (stereo partly drawn) [Example 425, 4-((1R,5S)-3,8-diazabicyclo[3.2.1]octan-3-yl)-7-(8-chloronaphthalen-1-yl)-2-((2,6-difluorohexahydro-1H-pyrrolizin-7a-yl)methoxy)-8-fluoropyrido[4,3-d]pyrimidine]",5.41 µM
18,"CN1CCC[C@H]1COc1nc(N2CC3CCC(Cl)(C2)N3)c2cnc(-c3cc(O)cc4ccccc34)c(F)c2n1 (stereo partly drawn) [Example 160, 4-(4-(1-chloro-3,8-diazabicyclo[3.2.1]octan-3-yl)-8-fluoro-2-(((S)-1-methylpyrrolidin-2-yl)methoxy)pyrido[4,3-d]pyrimidin-7-yl)naphthalen-2-ol bis(2,2,2-trifluoroacetate)]",6.93 µM
19,"Fc1c(-c2cccc(Cl)c2C2CC2)ncc2c(N3C[C@H]4CC[C@@H](C3)N4)nc(OCC34CCCN3CCC4)nc12 [Example 322, 4-((1R,5S)-3,8-diazabicyclo[3.2.1]octan-3-yl)-7-(3-chloro-2-cyclopropylphenyl)-8-fluoro-2-((tetrahydro-1H-pyrrolizin-7a(5H)-yl)methoxy)pyrido[4,3-d]pyrimidine]",0.665 µM
20,"Oc1cc(Cl)c(C2CC2)c(-c2ncc3c(N4C[C@H]5CC[C@@H](C4)N5)nc(OC[C@@]45CCCN4C[C@H](F)C5)nc3c2F)c1 [Example 283, 3-(4-((1R,5S)-3,8-diazabicyclo[3.2.1]octan-3-yl)-8-fluoro-2-(((2R,7aS)-2-fluorohexahydro-1H-pyrrolizin-7a-yl)methoxy)pyrido[4,3-d]pyrimidin-7-yl)-5-chloro-4-cyclopropylphenol]",0.007 µM
21,"Oc1ccc(OC(F)(F)F)c(-c2ncc3c(N4CC5CCC(C4)N5)nc(OCC45CCCN4C[C@H](F)C5)nc3c2F)c1 (mixture of isomers) [Example 340, 3-(4-((1R,5S)-3,8-diazabicyclo[3.2.1]octan-3-yl)-8-fluoro-2-((2-fluorotetrahydro-1H-pyrrolizin-7a(5H)-yl)methoxy)pyrido[4,3-d]pyrimidin-7-yl)-4-(trifluoromethoxy)phenol]",0.0515 µM

# Reference: US11453683B1, “KRas G12D inhibitors” (Mirati Therapeutics, Inc., priority 2019, dated 2022)
